Data as given in ChEMBL document CHEMBL1201862, “PubChem BioAssay data set” (2004).
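In this assay, cells in 96-well plates receive the compound at five concentrations for 48 hours. Endpoints are linearly interpolated between the surrounding concentrations. GI50 is the concentration that inhibits growth by half.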 Active and inactive are the calls of the source. Rule as the data show it: active = GI50 up to about 1.1 µM and inactive = higher.

Legend:
Experiment in all cases: growth of human tumour cells (NCI), 48 h
M14 = system: M14
OVCAR-4 = system: OVCAR-4
A498 = system: A498
SW-620 = system: SW-620
SK-OV-3 = system: SK-OV-3
SF-539 = system: SF-539
LXFL 529 = system: LXFL 529
HCT-116 = system: HCT-116
SF-268 = system: SF-268
SR = system: SR
HCC 2998 = system: HCC 2998
HCT-15 = system: HCT-15
SNB-75 = system: SNB-75
RPMI-8226 = system: RPMI-8226
UACC-257 = system: UACC-257
MDA-MB-435 = system: MDA-MB-435
MDA-MB-231 = system: MDA-MB-231
MCF7 = system: MCF7
BT-549 = system: BT-549
MDA-N = system: MDA-N

In the case of `O=C(Nc1cc(Cl)c(Cl)cc1Cl)C(=O)C1C=CCS1(=O)=O` (stereo unspecified), the GI50 (M14) is reported as > 100 µM (inactive), the GI50 (OVCAR-4) is reported as > 100 µM (inactive) and the GI50 (A498) is reported as > 100 µM (inactive). For the same molecule, the GI50 (SW-620) was > 100 µM (inactive), the GI50 (SK-OV-3) was > 100 µM (inactive) and the GI50 (SF-539) was > 100 µM (inactive). The GI50 (LXFL 529) was > 100 µM (inactive), the GI50 (HCT-116) was > 100 µM (inactive) and the GI50 (SF-268) was > 100 µM (inactive). For the same molecule, the GI50 (SR) was > 100 µM (inactive), the GI50 (HCC 2998) was > 100 µM (inactive) and the GI50 (HCT-15) was greater than 100 µM. The GI50 (SNB-75) was 72.6 µM (inactive), the GI50 (RPMI-8226) was > 100 µM (inactive) and the GI50 (UACC-257) was > 100 µM (inactive).
In the case of `CCC(C)(O)c1cn(-c2cccc(S(=O)(=O)O)c2)nn1` (stereo unspecified), the GI50 (M14) is reported as > 100 µM (inactive), the GI50 (OVCAR-4) is reported as > 100 µM (inactive) and the GI50 (A498) is reported as > 100 µM (inactive). The GI50 (SW-620) was > 100 µM (inactive), the GI50 (SK-OV-3) was > 100 µM (inactive) and the GI50 (SF-539) was > 100 µM (inactive). The GI50 (LXFL 529) was > 100 µM (inactive), the GI50 (HCT-116) was > 100 µM (inactive) and the GI50 (SF-268) was > 100 µM (inactive). The GI50 (SR) was > 100 µM (inactive), the GI50 (HCC 2998) was > 100 µM (inactive) and the GI50 (HCT-15) was greater than 100 µM. For the same molecule, the GI50 (SNB-75) was > 100 µM (inactive), the GI50 (RPMI-8226) was > 100 µM (inactive) and the GI50 (UACC-257) was > 100 µM (inactive).
For `COc1ccc(-c2nc(N)nc(-c3cc(C)ccc3O)c2Cl)cc1`, the GI50 (M14) was 84.1 µM (inactive), the GI50 (OVCAR-4) was 11.3 µM (inactive) and the GI50 (A498) was 43.7 µM (inactive). For the same molecule, the GI50 (SW-620) was > 100 µM (inactive), the GI50 (SK-OV-3) was 29.9 µM (inactive) and the GI50 (SF-539) was 31.7 µM (inactive). The GI50 (LXFL 529) was 33 µM (inactive), the GI50 (HCT-116) was 39.5 µM (inactive) and the GI50 (SF-268) was 26.4 µM (inactive). The GI50 (SR) was > 100 µM (inactive), the GI50 (HCC 2998) was > 100 µM (inactive) and the GI50 (HCT-15) was greater than 100 µM. The GI50 (SNB-75) was 25 µM (inactive), the GI50 (RPMI-8226) was > 100 µM (inactive) and the GI50 (UACC-257) was > 100 µM (inactive).
With `COC(=O)C(C(=O)C(=O)Nc1nnc(S)[nH]1)c1csc(N)n1` (stereo unspecified) the GI50 (M14) was > 100 µM (inactive), the GI50 (OVCAR-4) was > 100 µM (inactive) and the GI50 (A498) was > 100 µM (inactive). The GI50 (SW-620) was > 100 µM (inactive), the GI50 (SK-OV-3) was > 100 µM (inactive) and the GI50 (SF-539) was > 100 µM (inactive). The GI50 (LXFL 529) was > 100 µM (inactive), the GI50 (HCT-116) was > 100 µM (inactive) and the GI50 (SF-268) was > 100 µM (inactive). For the same molecule, the GI50 (SR) was > 100 µM (inactive), the GI50 (HCC 2998) was > 100 µM (inactive) and the GI50 (HCT-15) was greater than 100 µM. For the same molecule, the GI50 (SNB-75) was > 100 µM (inactive), the GI50 (RPMI-8226) was > 100 µM (inactive) and the GI50 (UACC-257) was > 100 µM (inactive).
With `CNc1cccc(-c2cc(O)c3cc4c(cc3n2)OCO4)c1` the GI50 (M14) was 0.224 µM (active), the GI50 (OVCAR-4) was > 20.7 µM (inactive) and the GI50 (A498) was 0.307 µM (active). The GI50 (SW-620) was 0.283 µM (active), the GI50 (SK-OV-3) was 0.256 µM (active) and the GI50 (SF-539) was 0.198 µM (active). The GI50 (LXFL 529) was 0.119 µM (active), the GI50 (MDA-MB-435) was 0.0378 µM (active) and the GI50 (HCT-116) was 0.236 µM (active). The GI50 (MDA-MB-231) was 0.407 µM (active), the GI50 (SF-268) was 1.05 µM (active) and the GI50 (SR) was 0.0407 µM (active). The GI50 (MCF7) was 0.293 µM (active), the GI50 (HCC 2998) was 0.322 µM (active) and the GI50 (BT-549) was 0.394 µM (active). The GI50 (HCT-15) was 0.272 µM, the GI50 (SNB-75) was 1.8 µM (inactive) and the GI50 (RPMI-8226) was 0.358 µM (active). For the same molecule, the GI50 (MDA-N) was 0.0296 µM (active).
For `N#C/C(=C\c1ccc2[nH]ccc2c1)C(=O)c1ccc(O)c(O)c1`, the GI50 (M14) was > 63.1 µM (inactive), the GI50 (OVCAR-4) was > 64.3 µM (inactive) and the GI50 (A498) was > 100 µM (inactive). The GI50 (SW-620) was 55.2 µM (inactive), the GI50 (SK-OV-3) was 59.4 µM (inactive) and the GI50 (SF-539) was > 57.4 µM (inactive). The GI50 (LXFL 529) was > 100 µM (inactive), the GI50 (MDA-MB-435) was 71.8 µM (inactive) and the GI50 (HCT-116) was > 53.6 µM (inactive). The GI50 (SF-268) was > 64.9 µM (inactive), the GI50 (SR) was 44.2 µM (inactive) and the GI50 (MCF7) was 34.8 µM (inactive). The GI50 (HCC 2998) was 66.7 µM (inactive), the GI50 (BT-549) was 24.5 µM (inactive) and the GI50 (HCT-15) was 51.4 µM. For the same molecule, the GI50 (SNB-75) was > 100 µM (inactive), the GI50 (RPMI-8226) was > 73.5 µM (inactive) and the GI50 (MDA-N) was > 100 µM (inactive). The GI50 (UACC-257) was > 80.5 µM (inactive).
With `O=c1[nH]c(=O)n([C@@H]2O[C@H](CO)[C@@H](O)[C@H]2O)cc1F` [5-FLUOROURIDINE] the GI50 (M14) was 0.222 µM (active), the GI50 (OVCAR-4) was 0.521 µM (active) and the GI50 (A498) was 0.308 µM (active). For the same molecule, the GI50 (SW-620) was 0.0222 µM (active), the GI50 (SK-OV-3) was 5.66 µM (inactive) and the GI50 (SF-539) was 0.0375 µM (active). The GI50 (LXFL 529) was 0.15 µM (active), the GI50 (MDA-MB-435) was 0.0333 µM (active) and the GI50 (HCT-116) was 0.0167 µM (active). For the same molecule, the GI50 (MDA-MB-231) was 1.63 µM (inactive), the GI50 (SF-268) was 0.0716 µM (active) and the GI50 (SR) was 0.0473 µM (active). The GI50 (HCC 2998) was 0.0311 µM (active), the GI50 (BT-549) was 0.459 µM (active) and the GI50 (HCT-15) was 0.0367 µM. For the same molecule, the GI50 (SNB-75) was 2.25 µM (inactive), the GI50 (RPMI-8226) was 0.126 µM (active) and the GI50 (MDA-N) was 0.025 µM (active).
